Experimental data from PubChem BioAssay AID330 (DTP/NCI, 2004).
“And” between values parts separate entries of the source, which are not always exact repeats. Identical values can stand only once. Inconclusive results and toxic doses are left out.

Test system: P388 leukemia ip, CD2F1 mice, survival T/C
Test: NCI In Vivo Anticancer Drug Screen. Data for tumor model P388 Leukemia (intraperitoneal) in CD2F1 (CDF1) mice
Conditions: endpoint: median survival time, higher = longer survival
Procedure: The antitumor activity of compounds was measured in mice bearing transplantable tumors. Survival or tumor size were measured and the results are expressed as the measurement made in the treated group (T) divided by the measurement made in the vehicle treated control group (C). The tumor model used in this assay is P388 Leukemia (intraperitoneal) in CD2F1 (CDF1) mice

[1] = dose: 50.0 mg/kg/injection, schedule: Q01DX009 (ip), vehicle: saline with Tween-80

## CCOC(=O)N/N=C/c1ccc[nH]1
dose: 1.8 mg/kg/injection, schedule: Q01DX005 (ip), vehicle: saline with Tween-80
  T/C: 100 % of control
dose: 3.75 mg/kg/injection, schedule: Q01DX005 (ip), vehicle: saline with Tween-80
  T/C: 100 % of control
dose: 7.5 mg/kg/injection, schedule: Q01DX005 (ip), vehicle: saline with Tween-80
  T/C: 101 % of control and 103 % of control

## CC(C)c1nnc2cc3c(cc2c1N)oc1ccccc13
dose: 100.0 mg/kg/injection, schedule: Q04DX002 (ip), vehicle: saline with Tween-80
  T/C: 87 % of control
dose: 200.0 mg/kg/injection, schedule: Q04DX002 (ip), vehicle: saline with Tween-80
  T/C: 92 % of control
dose: 400.0 mg/kg/injection, schedule: Q04DX002 (ip), vehicle: saline with Tween-80
  T/C: 87 % of control

## N#CN(Cc1ccccc1)C(c1ccccc1)(c1ccccc1)c1ccccc1.[Cl][Sn]([c]1ccccc1)([c]1ccccc1)[c]1ccccc1
dose: 3.12 mg/kg/injection, schedule: Q01DX005 (ip), vehicle: saline with Tween-80
  T/C: 91 % of control
dose: 6.25 mg/kg/injection, schedule: Q01DX005 (ip), vehicle: saline with Tween-80
  T/C: 98 % of control
dose: 12.5 mg/kg/injection, schedule: Q01DX005 (ip), vehicle: saline with Tween-80
  T/C: 91 % of control

## O=C(N/N=C\c1cc(Br)cc(Br)c1O)N/N=C/c1cc(Br)cc(Br)c1O
dose: 6.25 mg/kg/injection, schedule: Q01DX009 (ip), vehicle: saline with Tween-80
  T/C: 100 % of control and 110 % of control
dose: 12.5 mg/kg/injection, schedule: Q01DX009 (ip), vehicle: distilled water + Tween-80
  T/C: 98 % of control
dose: 20.0 mg/kg/injection, schedule: Q01DX005 (ip), vehicle: suspension in saline
  T/C: 106 % of control
dose: 20.0 mg/kg/injection, schedule: Q01DX005 (iv), vehicle: suspension in saline
  T/C: 101 % of control
dose: 25.0 mg/kg/injection, schedule: Q01DX009 (ip), vehicle: distilled water + Tween-80
  T/C: 106 % of control
dose: 40.0 mg/kg/injection, schedule: Q01DX005 (iv), vehicle: suspension in saline
  T/C: 101 % of control
dose: 50.0 mg/kg/injection, schedule: Q01DX009 (ip), vehicle: distilled water + Tween-80
  T/C: 120 % of control
dose: 50.0 mg/kg/injection, schedule: Q01DX009 (oral), vehicle: saline with Tween-80
  T/C: 103 % of control
dose: 80.0 mg/kg/injection, schedule: Q01DX005 (iv), vehicle: suspension in saline
  T/C: 100 % of control
dose: 100.0 mg/kg/injection, schedule: Q01DX009 (oral), vehicle: saline with Tween-80
  T/C: 105 % of control
dose: 160.0 mg/kg/injection, schedule: Q01DX005 (ip), vehicle: suspension in saline
  T/C: 158 % of control
dose: 160.0 mg/kg/injection, schedule: Q01DX005 (iv), vehicle: suspension in saline
  T/C: 100 % of control
dose: 200.0 mg/kg/injection, schedule: Q01DX009 (oral), vehicle: saline with Tween-80
  T/C: 108 % of control
dose: 280.0 mg/kg/injection, schedule: Q01DX005 (ip), vehicle: suspension in saline
  T/C: 160 % of control
dose: 400.0 mg/kg/injection, schedule: Q01DX009 (oral), vehicle: saline with Tween-80
  T/C: 104 % of control
dose: 800.0 mg/kg/injection, schedule: Q01DX009 (oral), vehicle: saline with Tween-80
  T/C: 104 % of control
dose: 1600.0 mg/kg/injection, schedule: Q01DX009 (oral), vehicle: saline with Tween-80
  T/C: 106 % of control

## COCC1OC(OC2C3=C(C(C)C)CCC3(C)/C=C3\C(CCC3(O)COC)C(C)C2O)C(O)C2OC3OC12OC3(C)C1CO1 (centres undefined)
dose: 1.5 mg/kg/injection, schedule: Q01DX009 (ip), vehicle: Klucel (hydroxypropylcellulose) (HPC)
  T/C: 96 % of control
dose: 3.0 mg/kg/injection, schedule: Q01DX009 (ip), vehicle: Klucel (hydroxypropylcellulose) (HPC)
  T/C: 113 % of control
dose: 6.0 mg/kg/injection, schedule: Q01DX009 (ip), vehicle: Klucel (hydroxypropylcellulose) (HPC)
  T/C: 91 % of control
dose: 12.0 mg/kg/injection, schedule: Q01DX009 (ip), vehicle: Klucel (hydroxypropylcellulose) (HPC)
  T/C: 97 % of control
dose: 24.0 mg/kg/injection, schedule: Q01DX009 (ip), vehicle: Klucel (hydroxypropylcellulose) (HPC)
  T/C: 100 % of control

## COCn1ccnc1C(=O)c1ccco1
[1]
  T/C: 103 % of control
dose: 100.0 mg/kg/injection, schedule: Q01DX009 (ip), vehicle: saline with Tween-80
  T/C: 111 % of control
dose: 200.0 mg/kg/injection, schedule: Q01DX009 (ip), vehicle: saline with Tween-80
  T/C: 94 % of control

## CC1(CCc2ccc(N(CCCl)CCCl)cc2)NC(=O)NC1=O (centres undefined)
dose: 3.13 mg/kg/injection, schedule: Q01DX009 (ip), vehicle: Klucel (hydroxypropylcellulose) (HPC)
  T/C: 105 % of control
dose: 6.25 mg/kg/injection, schedule: Q01DX009 (ip), vehicle: Klucel (hydroxypropylcellulose) (HPC)
  T/C: 103 % of control
dose: 12.5 mg/kg/injection, schedule: Q01DX009 (ip), vehicle: Klucel (hydroxypropylcellulose) (HPC)
  T/C: 103 % of control
dose: 50.0 mg/kg/injection, schedule: Q01DX009 (ip), vehicle: Klucel (hydroxypropylcellulose) (HPC)
  T/C: 103 % of control

## CC(C)(C)C1=CC(=O)C(=O)C(C(C)(C)C)=C1
dose: 25.0 mg/kg/injection, schedule: Q01DX009 (ip), vehicle: other
  T/C: 101 % of control
dose: 50.0 mg/kg/injection, schedule: Q01DX009 (ip), vehicle: other
  T/C: 108 % of control
dose: 100.0 mg/kg/injection, schedule: Q01DX009 (ip), vehicle: other
  T/C: 108 % of control

## NNc1c(C(N)=O)c2c(N)ncnc2n1C1OC(CO)C(O)C1O (centres undefined)
dose: 3.12 mg/kg/injection, schedule: Q01DX005 (ip), vehicle: Klucel (hydroxypropylcellulose) (HPC)
  T/C: 157 % of control
dose: 6.25 mg/kg/injection, schedule: Q01DX005 (ip), vehicle: Klucel (hydroxypropylcellulose) (HPC)
  T/C: 166 % of control
dose: 12.5 mg/kg/injection, schedule: Q01DX005 (ip), vehicle: Klucel (hydroxypropylcellulose) (HPC)
  T/C: 157 % of control
dose: 50.0 mg/kg/injection, schedule: Q04DX003 (ip), vehicle: Klucel (hydroxypropylcellulose) (HPC)
  T/C: 115 % of control
dose: 100.0 mg/kg/injection, schedule: Q04DX003 (ip), vehicle: Klucel (hydroxypropylcellulose) (HPC)
  T/C: 115 % of control
dose: 100.0 mg/kg/injection, schedule: Q04DX003 (ip), vehicle: water
  T/C: 120 % of control
dose: 200.0 mg/kg/injection, schedule: Q04DX003 (ip), vehicle: water
  T/C: 86 % of control

## O=C(Nc1ccccc1)Oc1cccc(/C=N/Sc2ccccc2)c1
[1]
  T/C: 98 % of control

## Cc1cc(NC(=O)Nc2ccc(Cl)cc2)no1
dose: 100.0 mg/kg/injection, schedule: Q04DX003 (ip), vehicle: saline with Tween-80
  T/C: 100 % of control
dose: 200.0 mg/kg/injection, schedule: Q04DX003 (ip), vehicle: saline with Tween-80
  T/C: 95 % of control
dose: 400.0 mg/kg/injection, schedule: Q04DX003 (ip), vehicle: saline with Tween-80
  T/C: 100 % of control

## C#CCn1cc(F)c(=O)n(CC#C)c1=O
dose: 30.0 mg/kg/injection, schedule: Q04DX002 (ip), vehicle: saline with Tween-80
  T/C: 101 % of control
dose: 60.0 mg/kg/injection, schedule: Q04DX002 (ip), vehicle: saline with Tween-80
  T/C: 99 % of control
dose: 120.0 mg/kg/injection, schedule: Q04DX002 (ip), vehicle: saline with Tween-80
  T/C: 98 % of control
dose: 150.0 mg/kg/injection, schedule: Q04DX002 (ip), vehicle: saline with Tween-80
  T/C: 107 % of control
dose: 240.0 mg/kg/injection, schedule: Q04DX002 (ip), vehicle: saline with Tween-80
  T/C: 100 % of control
dose: 300.0 mg/kg/injection, schedule: Q04DX002 (ip), vehicle: saline with Tween-80
  T/C: 104 % of control
dose: 600.0 mg/kg/injection, schedule: Q04DX002 (ip), vehicle: saline with Tween-80
  T/C: 98 % of control

## N#CC(Br)(CBr)COc1ccc(Cl)cc1Cl (centres undefined)
dose: 12.5 mg/kg/injection, schedule: Q01DX009 (ip), vehicle: saline with Tween-80
  T/C: 100 % of control
dose: 25.0 mg/kg/injection, schedule: Q01DX009 (ip), vehicle: saline with Tween-80
  T/C: 118 % of control
[1]
  T/C: 108 % of control

## C=C1C(=O)OC2C(OC=O)CCCC12 (centres undefined)
dose: 60.0 mg/kg/injection, schedule: Q01DX005 (ip), vehicle: Klucel (hydroxypropylcellulose) (HPC)
  T/C: 100 % of control
dose: 120.0 mg/kg/injection, schedule: Q01DX005 (ip), vehicle: Klucel (hydroxypropylcellulose) (HPC)
  T/C: 103 % of control
